# Assay results published in patent US10441648B2, “Mycobacterium antigenic composition” (priority 2010, dated 2019).
# Like-named read-outs stand apart in the source and are kept apart here.
# Assays:
# [1] = Conductivity determination (Malvern Zetasizer Nano); format: physicochemical
# Protocol: A range of standards having sodium chloride concentrations of 0, 75, 100, 150, 250 and 300 mM were prepared from a stock solution of 1500 mM sodium chloride by dilution in water for injection.
# Immunogenic compositions were prepared using M72 with two N-terminal His residues according to the procedures provided in Example 8. To investigate the contribution from the antigen itself and any residual materials in the purified bulk, placebo lyophilisation cakes were also prepared by excluding the antigen component.
# Using a Malvern Zetasizer Nano and 1.5 ml of each sample in folded capillary cells, a voltage of 30 to 150 V (determined automatically by the instrument) was applied and the conductivity determined.
# [2] = tested on: chicken Red Blood cells (RBC); assay: QS21 lytic activity, haemolysis assay (limit test); format: cell-based
# Protocol: QS21 is known to lyse red blood cells (RBC).
# QS21 lytic activity was measured by a haemolysis assay using chicken Red Blood cells (RBC). RBC were centrifuged at 550 g at 4° C. Supernatant was discarded. The pellet was carefully resuspended in PBS buffer to reach the initial volume and the same operation was repeated until supernatant was no longer red (generally 3 times). The pellet was stored at 4° C. for 3 to 4 days maximum if not used directly (and washed again the day it is used) or was diluted around 10 times in buffer if used the same day.
# A QS21 dose range curve was prepared in ASA buffer (in salt or in sorbitol buffer following the ASA sample tested) extemporaneously and the adjuvant samples (containing a 50 ug or 90 ug equivalent of QS21 meaning the equivalent of 500 ul or 900 ul ASA) were prepared. Final volume was adjusted to 900 ul in standards and samples with adequate buffer (containing or not sorbitol as a function of the buffer of the sample tested). Due to its opalescence, ASA interferes with optical density (OD). ASA “blanks” were thus prepared and their OD was subtracted from the OD of ASA tested samples. Those blanks corresponded to the same ASA volume as the volume tested in samples, but adjusted to 1 ml with buffer. No RBC were added to these blanks. Standards and samples were then incubated with RBC (100 ul of diluted RBC added to 900 ul of standards and samples) for 30 minutes at room temperature (RT). Samples were then centrifuged 5 minutes at 900 g. Optical density at 540 nm was measured after centrifugation.
# Determination of lytic activity was carried out by a limit test.
# 1. Limit of detection (LOD) was defined as the lowest concentration of QS21 leading to an OD: • Higher than the base level (OD>0.1) • Around three times higher than OD's buffer (the “0 ug” QS21) • In the ascendant part of the curve • Determined for each test.
# 2. QS21 lytic activity was held to be positive in the adjuvant samples if the OD for the adjuvant sample was greater than the ODLOD. […]
# [3] = DLS antigen size of M72 at varied pH and NaCl (salting out); format: physicochemical
# Protocol: Purified bulk antigen (M72 with two N-terminal His residues, SEQ ID No: 3, as prepared in Example 8) was diluted to a concentration of 100 ug/ml in three different buffers (10 mM phosphate buffer at pH 6.1, 20 mM Tris buffer at pH 7.5 and 20 mM Tris buffer at pH 8.5) containing final sodium chloride concentrations of 0, 50, 150, 300 and 450 mM.
# Samples were analysed immediately (TO), stored overnight at 4° C. before analysis (T0 O/N) or stored at 25° C. for 24 hours before analysis (T24 h 25° C.).
# DLS was performed using a Malvern Zetasizer Nano ZS from Malvern Instruments (UK). The instrument was operated using a laser wavelength of 633 nm and power of 4 mW. Scattered light was detected at 173° at a temperature of 22° C. The Z-average diameter (Zav) and polydispersity index (pi) are calculated by the instrument software.
# [4] = DLS and nephelometry of Mtb72f at varied pH and NaCl; format: physicochemical; conditions: pH 6.1, 7.5, 8.5; 0, 150, 450 mM sodium chloride; 24 hours at 4° C. or 25° C.
# [5] = pH 6.1, even in the absence of sodium chloride
# [6] = pH 7.5 or 8.5, over 24 hours at 25° C., particularly 0 or 50 mM sodium chloride
# [7] = pH 7.5 or 8.5, sodium chloride increased to 150 mM or greater
molecule,measurement,setting,value
[Cl-].[Na+] [sodium chloride],Conductivity,[1]; sodium chloride standard solution 75 mM in water for injection,8.2 mS/cm
same,Conductivity,[1]; sodium chloride standard solution 100 mM,10.7 mS/cm
same,Conductivity,[1]; sodium chloride standard solution 150 mM,15.6 mS/cm
same,Conductivity,[1]; sodium chloride standard solution 250 mM,23.9 mS/cm
same,Conductivity,[1]; sodium chloride standard solution 300 mM,30.0 mS/cm
QS21,OD,"[2]; 0.5 ug QS21, 150 mM sodium chloride buffer, optical density at 540 nm, 30 minutes RT with RBC",0.052
same,OD,"[2]; 0.6 ug QS21, 150 mM sodium chloride buffer, 540 nm",0.073
same,OD,"[2]; 0.7 ug QS21, 150 mM sodium chloride buffer, 540 nm",0.091
same,OD,"[2]; 0.8 ug QS21, 150 mM sodium chloride buffer, 540 nm",0.096
same,OD,"[2]; 0.9 ug QS21 (limit of detection), 150 mM sodium chloride buffer, 540 nm",0.12
same,OD,"[2]; 1 ug QS21, 150 mM sodium chloride buffer, 540 nm",0.195
same,OD,"[2]; 1.1 ug QS21, 150 mM sodium chloride buffer, 540 nm",0.212
same,OD,"[2]; 1.2 ug QS21, 150 mM sodium chloride buffer, 540 nm",0.348
same,OD,"[2]; 1.3 ug QS21, 150 mM sodium chloride buffer, 540 nm",0.479
same,OD,"[2]; 1.4 ug QS21, 150 mM sodium chloride buffer, 540 nm",0.612
same,OD,"[2]; 1.5 ug QS21, 150 mM sodium chloride buffer, 540 nm",0.669
same,OD,"[2]; 2 ug QS21, 150 mM sodium chloride buffer, 540 nm",1.139
same,OD,"[2]; 2.5 ug QS21, 150 mM sodium chloride buffer, 540 nm",1.294
same,OD,"[2]; 3 ug QS21, 150 mM sodium chloride buffer, 540 nm",1.391
same,OD,"[2]; 5 ug QS21, 150 mM sodium chloride buffer, 540 nm",1.416
"M72: purified bulk antigen, M72 with two N-terminal His residues, SEQ ID No: 3 (protein, M72 fusion with 2 additional his residues) MHHTAASDNFQLSQGGQGFAIPIGQAMAIAGQIRSGGGSPTVHIGPTAFLGLGVVDNNGNGARVQRVVGSAPAASLGISTGDVITAVDGAPINSATAMADALNGHHPGDVISVTWQTKSGGTRTGNVTLAEGPPAEFMVDFGALPPEINSARMYAGPGSASLVAAAQMWDSVASDLFSAASAFQSVVWGLTVGSWIGSSAGLMVAAASPYVAWMSVTAGQAELTAAQVRVAAAAYETAYGLTVPPPVIAENRAELMILIATNLLGQNTPAIAVNEAEYGEMWAQDAAAMFGYAAATATATATLLPFEEAPEMTSAGGLLEQAAAVEEASDTAAANQLMNNVPQALQQLAQPTQGTTPSSKLGGLWKTVSPHRSPISNMVSMANNHMSMTNSGVSMTNTLSSMLKGFAPAAAAQAVQTAAQNGVRAMSSLGSSLGSSGLGGGVAANLGRAASVGSLSVPQAWAAANQAVTPAARALPLTSLTSAAERGPGQMLGGLPVGQMGARAGGGLSGVLRVPPRPYVMPHSPAAGDIAPPALSQDRFADFPALPLDPSAMVAQVGPQVVNINTKLGYNNAVGAGTGIVIDPNGVVLTNNHVIAGATDINAFSVGSGQTYGVDVVGYDRTQDVAVLQLRGAGGLPSAAIGGGVAVGEPVVAMGNSGGQGGTPRAVPGRVVALGQTVQASDSLTGAEETLNGLIQFDAAIQPGDAGGPVVNGLGQVVGMNTAAS",antigen size (DLS),"[3]; pH 6.1, 0 mM sodium chloride, T0",35 nm
same,antigen size (DLS),"[3]; pH 6.1, 50 mM sodium chloride, T0",58 nm
same,antigen size (DLS),"[3]; pH 6.1, 50 mM sodium chloride, after 24 hours at 25° C.",79 nm
same,stability of antigen size,[3]; [5],not stable
same,stability of antigen size,[3]; [6],relatively stable
same,change in antigen size,[3]; [7],clear increase
same,stability of antigenicity,[5],not stable
same,stability of antigenicity,[6],relatively stable
same,change in antigenicity,[7],reduction
"Mtb72f: purified bulk antigen, Mtb72f with 6 his residues, SEQ ID No: 7 (protein, 6 His tag; Mtb72f fusion with 6 additional his residues) MHHHHHHTAASDNFQLSQGGQGFAIPIGQAMAIAGQIRSGGGSPTVHIGPTAFLGLGVVDNNGNGARVQRVVGSAPAASLGISTGDVITAVDGAPINSATAMADALNGHHPGDVISVTWQTKSGGTRTGNVTLAEGPPAEFMVDFGALPPEINSARMYAGPGSASLVAAAQMWDSVASDLFSAASAFQSVVWGLTVGSWIGSSAGLMVAAASPYVAWMSVTAGQAELTAAQVRVAAAAYETAYGLTVPPPVIAENRAELMILIATNLLGQNTPAIAVNEAEYGEMWAQDAAAMFGYAAATATATATLLPFEEAPEMTSAGGLLEQAAAVEEASDTAAANQLMNNVPQALQQLAQPTQGTTPSSKLGGLWKTVSPHRSPISNMVSMANNHMSMTNSGVSMTNTLSSMLKGFAPAAAAQAVQTAAQNGVRAMSSLGSSLGSSGLGGGVAANLGRAASVGSLSVPQAWAAANQAVTPAARALPLTSLTSAAERGPGQMLGGLPVGQMGARAGGGLSGVLRVPPRPYVMPHSPAAGDIAPPALSQDRFADFPALPLDPSAMVAQVGPQVVNINTKLGYNNAVGAGTGIVIDPNGVVLTNNHVIAGATDINAFSVGSGQTYGVDVVGYDRTQDVAVLQLRGAGGLPSAAIGGGVAVGEPVVAMGNSGGQGGTPRAVPGRVVALGQTVQASDSLTGAEETLNGLIQFDAAIQPGDSGGPVVNGLGQVVGMNTAAS",sensitivity of size (DLS and nephelometry) to salt and pH,[4],sensitive to salt concentration and pH
